For one experiment, the target named is Cbl-b (residues 36-427) (Homo sapiens, UniProt Q13191). The experiment is described as follows: Cbl-b binding assay (SPR, Biacore T200). The conditions noted are these: 20° C., 1:1 binding model. The method, boiled down: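 Steps: capture protein on NeutrAvidin surface; inject compound dilutions (8 or 10 points from 100 or 50 μM) 50 s; allow 90-180 s dissociation; regenerate 20 s with 0.3 M NaCl. Runs at 20° C in HEPES pH 7.5/100 mM NaCl/2% DMSO; 1:1 fitting.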

The test system of experiment [1] is T-cell. Kind of experiment: IL-2 secretion from T-cells co-stimulated with anti-CD3 and anti-CD28 antibody (Biological Example 2). Type of experiment: cell-based, human. The conditions noted are these: Homo sapiens, T-cell, primary human total T-cells, baseline = anti-CD3/anti-CD28 stimulated cells without inhibitor, read-out: IL-2 secretion, Anti-CD3/Anti-CD28 stimulation, fold change over baseline; for fold induction at 0.3 µM: 0.3 μM compound; for fold induction at 1 µM: 1 μM compound; for fold induction at 4 µM: 4 μM compound. The method, boiled down:
(§1)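 T-cells were stimulated with anti-CD3 antibody alone or with anti-CD28 antibody, in the presence or absence of Cbl-b inhibitor. IL-2 secretion or CD25 surface staining was measured, and values expressed as fold over the uninhibited baseline […].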

Experiment [2] has as its system T-cell. The experiment is described as follows: CD25 cell surface staining on T-cells co-stimulated with anti-CD3 and anti-CD28 antibody (Biological Example 2). Type of experiment: cell-based, human. The conditions noted are these: Homo sapiens, T-cell, primary human total T-cells, baseline = anti-CD3/anti-CD28 stimulated cells without inhibitor, read-out: CD25 staining, Anti-CD3/Anti-CD28 stimulation, fold change over baseline; for fold induction at 0.3 µM: 0.3 μM compound; for fold induction at 1 µM: 1 μM compound; for fold induction at 4 µM: 4 μM compound. The method, boiled down: as §1

The test system of experiment [3] is T-cell. The experiment is described as follows: CD25 cell surface staining on T-cells stimulated with anti-CD3 antibody alone (Biological Example 2). The class given is cell-based. The conditions noted are these: primary human total T-cells, baseline = anti-CD3/anti-CD28 stimulated cells without inhibitor, read-out: CD25 staining, Anti-CD3 stimulation, fold change over baseline; for fold induction at 1 µM: 1 μM compound; for fold induction at 8 µM: 8 μM compound.

The target in experiment [4] is T1, Cbl-b (Homo sapiens, UniProt Q13191). The experiment is described as follows: Cbl-b activity assay (Cbl-b inhibition assay), TR-FRET of Cbl-b interaction with UbcH5B-Ub. The class given is biochemical. Conditions: assay buffer with 100 mM NaCl, 60 nM Src kinase; read-out: Cbl-b activity IC50. The method, boiled down:
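UbcH5B (C85K) conjugated to N-terminally Bodipy-Fluorescein-labeled ubiquitin served as the fluorescent partner. After compound preincubation, Src kinase (60 nM) with 1 mM ATP and 5 mM MgCl2 (final) was added for 1.5 h, followed by a further 1 h incubation. Some values were obtained with 50 mM NaCl and 30 nM Src.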

Experiment [5] has as its target T1, Cbl-b. Kind of experiment: Cbl-b inhibition assay (Cbl-b activity assay, FRET, Biological Example 1; 100 mM NaCl, 60 nM Src kinase). Type of experiment: biochemical. Conditions: upper bound stated in text lists; read-out: IC50 values in the Cbl-b inhibition assay of Biological Example 1. The method, boiled down:
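Steps: Src kinase phosphorylates N-terminal biotinylated Avi-tagged Cbl-b; phosphorylated Cbl-b binds Bodipy-fluorescein ubiquitin-loaded UbcH5B; streptavidin-terbium on Cbl-b sits close to the fluorescein label, producing FRET. Inhibitors block UbcH5B-Ub binding.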

In experiment [6] the test system is T-cell. Kind of experiment: IL-2 secretion from T-cells stimulated with anti-CD3 antibody alone (Biological Example 2). The class given is cell-based. Conditions: primary human total T-cells, read-out: IL-2 secretion, Anti-CD3 stimulation, fold change over baseline; for fold induction at 1 µM: 1 μM compound; for fold induction at 8 µM: 8 μM compound.

Kd, fold induction and IC50 data for eight compounds are collected here from US20220324835A1 (Nurix Therapeutics, Inc., priority 2018, published 2022).

T1 sequence (Q13191 36-427): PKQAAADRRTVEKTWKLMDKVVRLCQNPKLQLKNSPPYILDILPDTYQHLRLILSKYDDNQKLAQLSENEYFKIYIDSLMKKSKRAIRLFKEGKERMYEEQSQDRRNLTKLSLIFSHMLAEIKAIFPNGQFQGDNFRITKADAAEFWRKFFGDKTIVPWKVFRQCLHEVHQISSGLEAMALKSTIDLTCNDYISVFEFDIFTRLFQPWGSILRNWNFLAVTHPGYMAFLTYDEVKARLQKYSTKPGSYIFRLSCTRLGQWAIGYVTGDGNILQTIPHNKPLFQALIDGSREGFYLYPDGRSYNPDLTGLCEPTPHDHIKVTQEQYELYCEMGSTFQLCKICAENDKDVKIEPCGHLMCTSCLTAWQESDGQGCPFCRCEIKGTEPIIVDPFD
Sequence of Cbl-b (residues 36-427) (Q13191 36-427): as above

In general, Kd refers to a measure of binding affinity in units of concentration. Read a high Kd as weaker binding. By IC50 is commonly meant the concentration that inhibits the measured activity by half. The compound `Cc1c[nH]nc1C[C@@H](C)c1cccc(N2Cc3c(cc(C(=O)N4CCC(O)C4)cc3C(F)(F)F)C2=O)c1` (stereo in doubt) [Compound 463, 6-((S)-3-hydroxypyrrolidine-1-carbonyl)-2-(3-((R)-1-(4-methyl-1H-pyrazol-3-yl)propan-2-yl)phenyl)-4-(trifluoromethyl)isoindolin-1-one] yielded a Kd at Cbl-b (residues 36-427) of less than 100 nM. In addition, the fold induction at 0.3 µM in the experiment on T-cell [1] was 1.01 to 2.5; in the experiment with T-cell [2], 1.01 to 1.3. The fold induction at 1 µM with T-cell [1] lay within 2.51 to 5; with T-cell [2] it was 1.01 to 1.3; in the experiment with T-cell [3] it was 0.801 to 1; in the experiment on T-cell [6], 0.101 to 0.15. Also, the fold induction at 4 µM in the experiment on T-cell [1] is greater than 7.5; with T-cell [2] it was 1.31 to 1.5. For the same compound, the fold induction at 8 µM in the experiment with T-cell [3] is greater than 1; in the experiment with T-cell [6], greater than 0.201. The IC50 at Cbl-b [4] is less than 100 nM; on Cbl-b [5], no more than 100 nM.
At Cbl-b (residues 36-427), `Cn1cnnc1[C@H](F)C(C)(F)c1cccc(N2Cc3c(cccc3C(F)(F)F)C2=O)c1` (stereo in doubt) [Compound 479, 2-(3-((1S,2S)-1,2-difluoro-1-(4-methyl-4H-1,2,4-triazol-3-yl)propan-2-yl)phenyl)-4-(trifluoromethyl)isoindolin-1-one] showed a Kd of 100 to 300 nM. Also, the fold induction at 0.3 µM lay within 1.01 to 2.5 in the experiment on T-cell [1] and 1.01 to 1.3 in the experiment on T-cell [2]. The fold induction at 1 µM in the experiment with T-cell [1] is 1.01 to 2.5; with T-cell [2], 1.01 to 1.3; in the experiment on T-cell [3], 0.601 to 0.8; in the experiment on T-cell [6], less than 0.05. In addition, the fold induction at 4 µM in the experiment with T-cell [1] lay in the range of 1.01 to 2.5; in the experiment with T-cell [2] it was 1.01 to 1.3. In addition, the fold induction at 8 µM in the experiment with T-cell [3] fell in the range of 0.801 to 1; with T-cell [6] it was 0.101 to 0.15. Besides, the IC50 is less than 100 nM at Cbl-b [4] and no more than 100 nM at Cbl-b [5].
On to `C[C@H](O)CNc1cc([C@H](C)Cc2nncn2C)cc(N2Cc3c(cccc3C(F)(F)F)C2=O)n1` [Compound 364, 2-(6-((S)-2-hydroxypropylamino)-4-((R)-1-(4-methyl-4H-1,2,4-triazol-3-yl)propan-2-yl)pyridin-2-yl)-4-(trifluoromethyl)isoindolin-1-one], for which the Kd at Cbl-b (residues 36-427) is 1000 to 3000 nM. For the same compound, in the experiment with T-cell [1], the fold induction at 0.3 µM lay within 1.01 to 2.5, the fold induction at 1 µM was 1.01 to 2.5 and the fold induction at 4 µM fell in the range of 1.01 to 2.5. Besides, in the experiment on T-cell [2], the fold induction at 0.3 µM lay within 1.01 to 1.3, the fold induction at 1 µM was 1.01 to 1.3 and the fold induction at 4 µM was 1.01 to 1.3. In the experiment with T-cell [3], the fold induction at 1 µM lay within 0.601 to 0.8 and the fold induction at 8 µM lay within 0.601 to 0.8. In addition, the IC50 at Cbl-b [4] lay in the range of 301 to 1000 nM. In the experiment with T-cell [6], the fold induction at 1 µM lay in the range of 0.051 to 0.1 and the fold induction at 8 µM was 0.101 to 0.15.
On Cbl-b (residues 36-427), `C[C@H](CO)Nc1cc([C@H](C)Cc2nncn2C)cc(N2Cc3c(cccc3C(F)(F)F)C2=O)n1` [Compound 366, 2-(6-((R)-1-hydroxypropan-2-ylamino)-4-((R)-1-(4-methyl-4H-1,2,4-triazol-3-yl)propan-2-yl)pyridin-2-yl)-4-(trifluoromethyl)isoindolin-1-one] gave a Kd of 100 to 300 nM. In addition, the fold induction at 0.3 µM lay in the range of 1.01 to 2.5 in the experiment with T-cell [1] and 1.01 to 1.3 in the experiment with T-cell [2]. Also, the fold induction at 1 µM fell in the range of 2.51 to 5 with T-cell [1], 1.01 to 1.3 with T-cell [2], 0.801 to 1 in the experiment on T-cell [3] and 0.051 to 0.1 in the experiment on T-cell [6]. For the same compound, the fold induction at 4 µM with T-cell [1] fell in the range of 5 to 7.5; in the experiment on T-cell [2], 1.31 to 1.5. For the same compound, the fold induction at 8 µM with T-cell [3] was greater than 1; in the experiment with T-cell [6] it was greater than 0.201. In addition, the IC50 at Cbl-b [4] was 100 to 300 nM; on Cbl-b [5], no more than 300 nM.
For the compound `Cc1conc1C[C@@H](C)c1cccc(N2Cc3c(cccc3C(F)(F)F)C2=O)c1` [Compound 367a, (R)-2-(3-(1-(4-Methylisoxazol-3-yl)propan-2-yl)phenyl)-4-(trifluoromethyl)isoindolin-1-one], at Cbl-b (residues 36-427), the Kd lay in the range of 1000 to 3000 nM. Besides, the values for the fold induction at 0.3 µM in the experiment on T-cell [1] and with T-cell [2] were less than 1 and 1.01 to 1.3, respectively. Moreover, the fold induction at 1 µM in the experiment on T-cell [1] was less than 1; with T-cell [2] it was less than 1; in the experiment with T-cell [3], 0.601 to 0.8; with T-cell [6], 0.051 to 0.1. Besides, the fold induction at 4 µM in the experiment with T-cell [1] is 1.01 to 2.5; in the experiment with T-cell [2], 1.01 to 1.3. Moreover, the fold induction at 8 µM was in the range of 0.801 to 1 with T-cell [3] and 0.151 to 0.2 in the experiment with T-cell [6]. Further, the values for the IC50 at Cbl-b [4] and on Cbl-b [5] were 100 to 300 nM and no more than 300 nM, respectively.
Consider `C[C@H](Cc1nncn1C)c1cccc(N2Cc3c(cc(C4CC4)nc3C3CC3)C2=O)c1` [Compound 370, 4,6-dicyclopropyl-2-{3-[(2R)-1-(4-methyl-1,2,4-triazol-3-yl)propan-2-yl]phenyl}-3H-pyrrolo[3,4-c]pyridin-1-one], for which the Kd at Cbl-b (residues 36-427) is 100 to 300 nM. For the same compound, the fold induction at 0.3 µM in the experiment with T-cell [1] is 1.01 to 2.5; with T-cell [2] it was 1.01 to 1.3. Also, the fold induction at 1 µM is 1.01 to 2.5 with T-cell [1], 1.01 to 1.3 in the experiment on T-cell [2], 0.601 to 0.8 with T-cell [3] and 0.051 to 0.1 in the experiment with T-cell [6]. For the same compound, the fold induction at 4 µM is 5 to 7.5 in the experiment with T-cell [1] and greater than 1.76 with T-cell [2]. For the same compound, the fold induction at 8 µM was 0.801 to 1 with T-cell [3] and greater than 0.201 in the experiment on T-cell [6]. In addition, the IC50 on Cbl-b [4] was 100 to 300 nM; on Cbl-b [5], no more than 300 nM.
On Cbl-b (residues 36-427), `Cn1cnnc1[C@H](F)[C@](C)(F)c1cccc(N2Cc3c(cc(C4CC4)cc3C(F)(F)F)C2=O)c1` [Compound 481a, 6-cyclopropyl-2-[3-[(1S,2R)-1,2-difluoro-1-(4-methyl-4H-1,2,4-triazol-3-yl)propan-2-yl]phenyl]-4-(trifluoromethyl)-2,3-dihydro-1H-isoindol-1-one] gave a dissociation constant Kd of 100 to 300 nM. The figures for the fold induction at 0.3 µM in the experiment on T-cell [1] and in the experiment on T-cell [2] were less than 1 and 1.01 to 1.3, respectively. The fold induction at 1 µM in the experiment on T-cell [1] fell in the range of 1.01 to 2.5; in the experiment on T-cell [2], 1.01 to 1.3; in the experiment on T-cell [3], 0.801 to 1; in the experiment on T-cell [6], 0.051 to 0.1. The fold induction at 4 µM lay in the range of 2.51 to 5 in the experiment on T-cell [1] and 1.01 to 1.3 in the experiment on T-cell [2]. Also, the figures for the fold induction at 8 µM in the experiment with T-cell [3] and with T-cell [6] were greater than 1 and 0.101 to 0.15, respectively. Also, the IC50 on Cbl-b [4] was in the range of 100 to 300 nM.
With `C[C@H](c1cc2c(c(C(F)(F)F)c1)CN(c1cccc(C3(Cc4nncn4C)COC3)c1)C2=O)N1CCC2(CC1)CC2` [Example 558b, (R)-6-(1-(6-azaspiro[2.5]octan-6-yl)ethyl)-2-(3-(3-((4-methyl-4H-1,2,4-triazol-3-yl)methyl)oxetan-3-yl)phenyl)-4-(trifluoromethyl)isoindolin-1-one], the fold induction at 0.3 µM is greater than 7.5 in the experiment with T-cell [1] and 1.01 to 1.3 in the experiment with T-cell [2]. Further, the fold induction at 1 µM in the experiment on T-cell [1] is greater than 7.5; with T-cell [2], 1.01 to 1.3; in the experiment on T-cell [3] it was greater than 1; in the experiment with T-cell [6], greater than 0.201. The IC50 at Cbl-b [4] was less than 100 nM; on Cbl-b [5], no more than 100 nM.
